Measured values published in US20120208776A1 (priority 2002, published 2012).
Values joined by “and” are separate entries in the source; they are usually repeats but may differ in a detail not shown here. Equal entries are not always repeated. Where two headings read alike, the source gives them in different places.

Tests used:
[1] = system: MDA-MB-453 cells; test: Combination of agents, MTT assay, combination index
Procedure: Calculating the Combination Index. To determine the Combination Index (CI), 1) the Na^+-K^+-ATPase enzyme or 2) MDA-MB-453 cells were exposed to all combinations of 3, 4 or 5 concentrations of each of the agents tested and a solvent control. […] The results of the enzymatic assay of ATPase or MTT assay were analyzed for possible synergistic effects using the median effect principle. Variable ratios of drugs were employed and mutually exclusive equations were assumed.
Calculating the Combination Index.
The simvastatin was obtained from Sigma of St. Louis, Mo. The concentrations tested in the present example were 0, 0.2, 2, 5, and 20 μg/ml actein and 0, 0.8, 4, 20 and 40 μg/ml simvastatin.

[2] = target: T1, Na^+-K^+-ATPase; test: Enzymatic assay of adenosine 5′-triphosphatase; type: biochemical; details: read-out: IC50 (50% inhibition of Na^+-K^+-ATPase activity); purified enzyme, in vitro
T1 construct: Combination index; actein (μM); Combination index; actein; ATPase activity; other: actein 0.8 μM alone; other: digitox
Procedure: Enzymatic assay of adenosine 5′-triphosphatase. The enzymatic assay of ATPase (adenosine 5′-triphosphatase, EC 3.6.1.3) followed the Sigma Prod. […] [P] was determined by the Taussky-Shorr method.

[3] = system: HCC1569 cells; test: MTT assay, 96 hours; type: cell-based; details: Homo sapiens
[4] = system: MCF7 cells; test: Western-blot analysis; type: cell-based, human
Procedure: Cells were treated for increasing times with approximately the IC50 concentration, or twice the IC50 concentration, of actein. The cells were harvested, washed with PBS, and sonicated in extraction buffer according to the procedure of Han et al. (Han et al., Stable overexpression of cyclin D1 in a human mammary epithelial cell line prolongs the S-phase, and inhibits growth. Oncogene, 10:953-61, 1995). The lysates were subjected to electrophoresis on a 10% or 12.5% SDS-polyacrylamide gel, and then transferred to a polyvinylidene difluoride (PVDF) membrane. The membrane was blocked with milk protein, and incubated with a solution containing the primary antibody against the following: cyclin D1 (Upstate Biotechnology, Lake Placid, N.Y.), p21^cip1 (Oncogene Research Products, Darmstadt, Germany), ppRb (ser 780, Medical and Biological Laboratories, Nagoya, Japan), cdk4 (Upstate Biotechnology, Lake Placid, N.Y.), EGFR (clone-74, Transduction Laboratories, Lexington, Ky.), p-EGFR (phospho (Y1173)-EGFR) (Cell Signaling, Beverly, Mass.), actin (Sigma, St. Louis, Mo.), Her-2/neu (Cell Signaling, Beverly, Mass.), or phospho-(Y1248)-Her-2/neu (Cell Signaling, Beverly, Mass.)), IκB (Sant Cruz Biotechnolgy, Santa Cruz, Calif.), IκκB (Sigma, St. Louis, Mo.) and PPARγ (Santa Cruz biotechnology, Santa Cruz, Calif.) (Masuda et al., Epigallocatechin-3-gallate inhibits activation of HER-2/neu and downstream signaling pathways in human head and neck and breast carcinoma cells. Clin. Cancer Res., 9: 3486-91, 2003). The membrane was washed, and incubated with horseradish peroxidase conjugated secondary antibody.
Protein bands were visualized with the ECL-enhanced chemiluminescence system, according to the manufacturer's directions (Amersham Pharmacia Biotech) (Sgambato et al., Overexpression of p27 (Kip1) inhibits the growth of both normal and transformed human mammary epithelial cells. Cancer Research, 58:3448-54, 1998). The staining intensities of the visualized blots were quantified using NIH image software. For each protein, the relative band intensities were determined by comparing treated samples with untreated controls. These values were then normalized, using β-actin as an internal control.

[5] = system: HepG2 p53 positive human liver cancer cells; test: MTT proliferation assay; type: cell-based
[6] = system: MDA-MB-453 cells; test: Combination with chemotherapy agents, cell count, combination index (CI); type: cell-based, human
[7] = system: MCF7 cells; test: Cell-cycle analysis by DNA flow cytometry; type: cell-based, human
Procedure: Synchrony: To synchronize the cells, 3×10^5 cells were plated onto 10 cm dishes and grown for 2 days in DMEM supplemented with 10% fetal bovine serum.
After incubation for 1-3 days, the supernatant was collected, and the cells were trypsinized, collected, and washed with phosphate buffered saline (PBS) containing 5% FBS. Cell pellets were re-suspended in 1 ml of PBS plus 5% FBS. Thereafter, 5 ml of 70% ethanol were added drop-wise, while vortexing the tube, and the mixture was stored at 4° C. Cells were centrifuged, washed with PBS plus 5% FBS, and re-suspended in 400 μl of propidium iodide (0.1 mg/ml) (Sigma Chemical Co.). 400 μl (2 mg/ml) of RNase (Sigma Chemical Co.) were added, and the cells were incubated in the dark at room temperature for 30 min.

[8] = system: cyclin D1 mRNA in MCF7 cells; test: RT-PCR of mRNA; type: cell-based, human
Procedure: FIG. 13 illustrates the effects of actein on cyclin D1 mRNA in MCF7 cells (RT-PCR). MCF7 cells were treated with DMSO or actein for 3, 10, or 24 h. RNA was isolated and analyzed by RT-PCR, using primers for cyclin D1 and actin (control). The staining intensities of the visualized blots were quantified using NIH image software. The relative band intensities were determined by comparing treated samples with untreated controls. These values were then normalized (fold), using β-actin as an internal control.

[9] = Homo sapiens, MDA-MB-453, read-out: percent viable cells

## C[C@H]1O[C@@H](O[C@H]2[C@@H](O)C[C@H](O[C@H]3[C@@H](O)C[C@H](O[C@H]4CC[C@@]5(C)[C@H](CC[C@@H]6[C@@H]5CC[C@]5(C)[C@@H](C7=CC(=O)OC7)CC[C@]65O)C4)O[C@@H]3C)O[C@@H]2C)C[C@H](O)[C@@H]1O [digitoxin]
[1]; Homo sapiens, MDA-MB-453, read-out: percent viable cells, digitoxin 0.01 μg/ml alone (actein study)
  viability at 0.01 µg/mL: 62.8%
[1]; Homo sapiens, MDA-MB-453, read-out: percent viable cells, digitoxin 0.01 μg/ml alone (paclitaxel study)
  viability at 0.01 µg/mL: 73%
[2]
  IC50: 0.8 µM
[3]
  IC50: 0.12 µM

## CC(=O)O[C@@H]1C[C@@]23C[C@@]24CC[C@H](O[C@@H]2OC[C@@H](O)[C@H](O)[C@H]2O)C(C)(C)[C@@H]4CC[C@H]3[C@]2(C)C[C@@H]3O[C@]4(C[C@@H](C)[C@@H]3[C@@]12C)O[C@H](O)[C@@]1(C)O[C@@H]41 [actein]
[4]; 40 μg/ml, 24 h
  cellular level of cyclin D1: almost a complete loss
[4]; 20 or 40 μg/ml
  level of EGFR: not significantly affected
[4]; 3 h, 20 μg/ml
  p21cip1 band intensity relative to β-actin: 1.47 fold
  ppRb band intensity relative to β-actin: 1.51 fold
[4]; 3 h, 40 μg/ml
  p21cip1 band intensity relative to β-actin: 1.17 fold and 1 fold
  ppRb band intensity relative to β-actin: 1.59 fold
[4]; 10 h, 20 μg/ml
  p21cip1 band intensity relative to β-actin: 1.75 fold
  ppRb band intensity relative to β-actin: 0.61 fold
[4]; 10 h, 40 μg/ml
  p21cip1 band intensity relative to β-actin: 1.37 fold
  ppRb band intensity relative to β-actin: 0.64 fold
[4]; 24 h, 20 μg/ml
  p21cip1 band intensity relative to β-actin: 0.94 fold
  ppRb band intensity relative to β-actin: 0.80 fold and 0.8 fold
[4]; 24 h, 40 μg/ml
  p21cip1 band intensity relative to β-actin: 0.78 fold
  ppRb band intensity relative to β-actin: 0.43 fold
[5]
  IC50: 27 µg/mL and 40 µM
[6]; actein 1
  number of viable cells, average: 148202.7
[6]; actein 10
  number of viable cells, average: 106747.3
[6]; actein .1 (μg/ml), 96 h
  number of viable cells, average: 174798.3
[1]; [9]
  viability at 0.2 µg/mL: 97.8%
  viability at 2 µg/mL: 75.8%
  viability at 5 µg/mL: 70.9%
[1]; actein 2 ug/ml alone (simvastatin study)
  cell survival: 68.2%
[7]; 10 μg/ml, 24 h
  cells in G1: 75%
[7]; 10 μg/ml, 48 h
  cells in G1: 77%
[7]; 20 μg/ml, 24 h
  cells in G1: 77%
[7]; 20 μg/ml, 48 h
  apoptosis (sub G1 peak): approximately 1.4%
  cells in G1: 87%
[7]; 20 μg/ml, 72 h
  apoptosis (sub G1 peak): 3.6%
[7]; 30 μg/ml, 48 h
  cells in G1: 82%
  cells in G2/M: 12%
[7]; 40 μg/ml, 24 h
  cells in G1: 74%
[7]; 40 μg/ml, 48 h
  cells in G1: 79%
[7]; 60 μg/ml, 48 h
  cells in G1: 77%
  cells in G2/M: 18%
[2]
  IC50: 11.2 µM and 16 µM
[3]; unit inferred, read-out: IC50
  IC50: 25 µM
[8]; 3 h, 20 μg/ml
  cyclin D1 mRNA (RT-PCR): 0.91 fold
[8]; 3 h, 40 μg/ml
  cyclin D1 mRNA (RT-PCR): 0.94 fold
[8]; 10 h, 20 μg/ml
  cyclin D1 mRNA (RT-PCR): 1.1 fold
[8]; 10 h, 40 μg/ml
  cyclin D1 mRNA (RT-PCR): 0.93 fold
[8]; 24 h, 20 μg/ml
  cyclin D1 mRNA (RT-PCR): 0.84 fold
[8]; 24 h, 40 μg/ml
  cyclin D1 mRNA (RT-PCR): 0.66 fold
